Drawing on patent publication US11485747B2, “Diphenylmethane protective agent” (priority 2016, dated 2022), this text covers solubility and increase in solubility for two compounds.

≈ marks a conversion by molar mass, not a printed value. Where a SMILES comes first, the peptide text is derived from it. Where only a bound is given, the exact number is not on record here.

This data set in a line: physchem. The data set is classed as physicochemical. The method, then:
Peptide used as model: H-Gly-Gly-Gly-NH2
H-Gly-Gly-Gly-NH2 and H-Gly-Gly-Gly-NH-(TIPS2-Dpm) were synthesized, CPME (cyclopentyl methyl ether) was saturated with each of the compounds at 25° C., and the solubility was measured.

Compound `NCC(=O)NCC(=O)NCC(N)=O` [H-Gly-Gly-Gly-NH2, reference compound] (H-Gly-Gly-Gly-NH2) gave a solubility of 0.039 mM (≈ 0.00734 mg/mL). With `CC(C)[Si](OCCCCCCCCCCCOc1ccc(C(NC(=O)CNC(=O)CNC(=O)CN)c2ccc(OCCCCCCCCCCCO[Si](C(C)C)(C(C)C)C(C)C)cc2)cc1)(C(C)C)C(C)C` [H-Gly-Gly-Gly-NH-(TIPS2-Dpm)], the increase in solubility is listed as ≥ 10,000 fold and the solubility is 426 mM (≈ 443 mg/mL).
